{
  "source": "PubChem BioAssay (NCI)",
  "experiment_in_all_cases": "NCI tumour cell line growth inhibition, 48 h",
  "key": {"HOP-18 NSCLC": {"test_system": "HOP-18 NSCLC"}, "M19-MEL melanoma": {"test_system": "M19-MEL melanoma"}, "KM20L2 colon": {"test_system": "KM20L2 colon"}, "DMS 114 small cell lung": {"test_system": "DMS 114 small cell lung"}, "SNB-78 CNS": {"test_system": "SNB-78 CNS"}, "XF 498 CNS": {"test_system": "XF 498 CNS"}, "P388 leukemia": {"test_system": "P388 leukemia"}, "SN12K1 renal": {"test_system": "SN12K1 renal"}, "P388/ADR leukemia": {"test_system": "P388/ADR leukemia"}},
  "note": "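These data come from cells grown in 96-well plates and exposed to compound for 48 hours at five concentrations. GI50 marks 50% less growth. TGI marks complete inhibition of growth.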",
  "data": [
    {"smiles": "CCCCCCCC/C=C\\CCCCCCCC(=O)NCCN(CCN)C(=O)CCCCCCC/C=C\\CCCCCCCC", "values": [
      {"measurement": "TGI", "setting": "HOP-18 NSCLC", "result": "> 100", "unit": "µM"},
      {"measurement": "TGI", "setting": "M19-MEL melanoma", "result": "> 100", "unit": "µM"},
      {"measurement": "TGI", "setting": "KM20L2 colon", "result": "> 100", "unit": "µM"},
      {"measurement": "TGI", "setting": "DMS 114 small cell lung", "result": "> 100", "unit": "µM"}
    ]},
    {"smiles": "O=C(O)CC/C(=N\\Nc1nsc2ccccc12)c1ccc(Cl)cc1", "values": [
      {"measurement": "TGI", "setting": "HOP-18 NSCLC", "result": 52, "unit": "µM"},
      {"measurement": "TGI", "setting": "M19-MEL melanoma", "result": "> 100", "unit": "µM"},
      {"measurement": "TGI", "setting": "KM20L2 colon", "result": "> 100", "unit": "µM"},
      {"measurement": "TGI", "setting": "SNB-78 CNS", "result": "> 100", "unit": "µM"},
      {"measurement": "TGI", "setting": "DMS 114 small cell lung", "result": "> 100", "unit": "µM"}
    ]},
    {"smiles": "COc1ccc([C@H]2CC(=O)NCCCCN2)cc1", "values": [
      {"measurement": "TGI", "setting": "HOP-18 NSCLC", "result": "> 100", "unit": "µM"},
      {"measurement": "TGI", "setting": "M19-MEL melanoma", "result": "> 100", "unit": "µM"},
      {"measurement": "TGI", "setting": "XF 498 CNS", "result": "> 100", "unit": "µM"},
      {"measurement": "TGI", "setting": "KM20L2 colon", "result": "> 100", "unit": "µM"},
      {"measurement": "TGI", "setting": "SNB-78 CNS", "result": "> 100", "unit": "µM"},
      {"measurement": "TGI", "setting": "DMS 114 small cell lung", "result": "> 100", "unit": "µM"}
    ]},
    {"smiles": "O=[N+]([O-])O.[Ga]", "values": [
      {"measurement": "GI50", "setting": "HOP-18 NSCLC", "result": 5210, "unit": "µM"},
      {"measurement": "TGI", "setting": "HOP-18 NSCLC", "result": "> 9360", "unit": "µM"},
      {"measurement": "GI50", "setting": "P388 leukemia", "result": 1680, "unit": "µM"},
      {"measurement": "TGI", "setting": "P388 leukemia", "result": "> 10000", "unit": "µM"},
      {"measurement": "GI50", "setting": "KM20L2 colon", "result": 1270, "unit": "µM"},
      {"measurement": "TGI", "setting": "KM20L2 colon", "result": "> 10000", "unit": "µM"},
      {"measurement": "GI50", "setting": "SN12K1 renal", "result": 1210, "unit": "µM"},
      {"measurement": "TGI", "setting": "SN12K1 renal", "result": 6000, "unit": "µM"},
      {"measurement": "GI50", "setting": "SNB-78 CNS", "result": "> 4220", "unit": "µM"},
      {"measurement": "TGI", "setting": "SNB-78 CNS", "result": "> 4980", "unit": "µM"},
      {"measurement": "GI50", "setting": "P388/ADR leukemia", "result": 712, "unit": "µM"},
      {"measurement": "TGI", "setting": "P388/ADR leukemia", "result": "> 3030", "unit": "µM"}
    ]},
    {"smiles": "CC(C)n1c2c([n+](C)c1/C=C/c1ccccc1)C(=O)c1ccccc1C2=O", "values": [
      {"measurement": "TGI", "setting": "M19-MEL melanoma", "result": 0.321, "unit": "µM"},
      {"measurement": "TGI", "setting": "KM20L2 colon", "result": 1.31, "unit": "µM"},
      {"measurement": "TGI", "setting": "SNB-78 CNS", "result": 0.413, "unit": "µM"},
      {"measurement": "TGI", "setting": "DMS 114 small cell lung", "result": 0.0439, "unit": "µM"}
    ]},
    {"smiles": "COc1ccc2c(c1)OC[C@@H]1c3cc4c(cc3O[C@H]21)OCO4", "values": [
      {"measurement": "TGI", "setting": "HOP-18 NSCLC", "result": "> 100", "unit": "µM"},
      {"measurement": "TGI", "setting": "XF 498 CNS", "result": "> 100", "unit": "µM"},
      {"measurement": "TGI", "setting": "KM20L2 colon", "result": "> 100", "unit": "µM"},
      {"measurement": "TGI", "setting": "SNB-78 CNS", "result": "> 100", "unit": "µM"},
      {"measurement": "TGI", "setting": "DMS 114 small cell lung", "result": "> 100", "unit": "µM"}
    ]},
    {"smiles": "COP1(=O)Oc2ccccc2C(=O)C(C(F)(F)F)(C(F)(F)F)O1", "note": "(stereo not given)", "values": [
      {"measurement": "TGI", "setting": "M19-MEL melanoma", "result": "> 100", "unit": "µM"},
      {"measurement": "TGI", "setting": "XF 498 CNS", "result": "> 100", "unit": "µM"},
      {"measurement": "TGI", "setting": "KM20L2 colon", "result": "> 100", "unit": "µM"},
      {"measurement": "TGI", "setting": "DMS 114 small cell lung", "result": "> 100", "unit": "µM"}
    ]}
  ]
}
